According to a melting point compilation (Tetko et al.; mined from patent text by program, amines drawn as free bases though some values may be those of a salt):

Compound | melting point
CCCN1C(=O)N(c2ccc([N+](=O)[O-])c(C(F)(F)F)c2)C(=O)C1(C)C | 102 °C
CS(=O)(=O)CCC(=O)Nc1ccc(OCC(O)CO)cc1 (stereo not given) | 160 to 162 °C
Cc1ccc(C#N)cc1C#N | 142 to 143 °C
CC1Cc2cc3c(cc2C1=O)C(C)(C)CCC3(C)C (stereo not given) | 74 to 75.5 °C
N#CCC(C#N)=NNc1c(Cl)cc(C(F)(F)F)cc1Cl | 80 to 82 °C
O=c1c2c(Cl)cccc2nc(C(S)c2ncnc3[nH]cnc23)n1-c1ccccc1Cl (stereo not given) | 234 °C
N[C@@H](CSc1ccccc1[N+](=O)[O-])C(=O)O | 168 to 171 °C
CC(C)(C)OC(=O)NCC(=O)Nc1c(C(=O)CC(=O)Nc2nccs2)cccc1C(F)(F)F | 166 °C
CCOC(=O)c1c[nH]c2nc(N3CCC(N)C3)c(F)cc2c1=O (stereo not given) | 139 to 141 °C
CN(N)c1nc(=S)[nH]c2[nH]cnc12 | 245 °C
CC1(C)CC(CN2CCNC2=N[N+](=O)[O-])CO1 (stereo not given) | 119 to 120 °C
Cc1ccc(O[C@H]2CCN(C)C[C@H]2O)cc1C (relative stereo) | 127 to 129 °C
Cc1nc(N2CCN(CC3CC3(F)F)C2=O)sc1C(=O)NCc1cccnc1 (stereo not given) | 169 to 171 °C
COc1cc2nc(N3CCN(C(=O)C=Cc4cc(OC)c(OC)c(OC)c4)CC3)nc(N)c2cc1OC | 141 to 146 °C
CC(=O)c1ccc(N)c(Br)c1 | 59 to 62 °C
CC(C)C1(C)CCNC1=O (stereo not given) | 88 to 90 °C
CCCc1c(OC(C(=O)OCC)c2ccc(OC)cc2)ccc(C(C)=O)c1O (stereo not given) | 87 to 89 °C

Compound | melting point
CCc1ncnc(O)c1[N+](=O)[O-] | 181 to 183 °C
CC(Cc1c[nH]c2ccccc12)C1=CCNCC1 (stereo not given) | 125 °C
Cc1cccc(Cn2cc(C(=O)C(=O)NC3=CC(=O)OC3)c3ccccc32)c1 | 298 to 300 °C
C#CCOC1(C(F)(F)F)CN(C)C(=O)Nc2ccc(Cl)cc21 (stereo not given) | 230 to 232 °C
CCOC(=O)c1cnc(N2CCSCC2)nc1Cl | 81 to 83 °C
CC(=O)N1CCc2cc(-c3ccc4c(c3)CCC3N(C)C(=O)CCC43C)cc([N+](=O)[O-])c21 (single isomer, unassigned; (+)) | 235 to 240 °C
O=CNCS(=O)(=O)c1ccccc1 | 106 to 107 °C
O=P(O)(O)CC(O)CNO (stereo not given) | 153 to 155 °C
CC(=O)NCCNc1nc(Nc2ccc(Cl)cc2)ncc1[N+](=O)[O-] | 224 to 226 °C
CC(C)(C)OC(=O)N1CCC(c2ccc3[nH]c(=O)[nH]c3c2)CC1 | > 250 °C
O=C(c1ccc(Br)cc1)c1ncccc1O | 94 to 95 °C
CCCc1cc(=O)n2cccc(O)c2n1 | 95 to 96 °C
O=C(O)CCCNC(=O)C(CS)Cc1ccccc1 (stereo not given) | 94.5 to 101 °C
CCCN(CCC)Cc1csc(-c2ncn3c2[C@@H]2CCCN2C(=O)c2c(Cl)cccc2-3)n1 | 213 to 214 °C
COCc1ccc(CC(C)NCC(O)c2ccc(O)c(CO)c2)cc1 (stereo not given) | 81 to 92 °C
CCCCCCNC(=O)Nc1cccc2c1C1(COc3cc4c(cc31)OCCO4)C(=O)N2C (stereo not given) | 154 to 155 °C

Other lines, results leading:

melting point | Compound
186 to 187 °C | CSc1ccc(Cn2c(C)c(CC(=O)O)c3cc(OCc4nc5ccccc5s4)ccc32)cc1
93.5 to 97 °C | COCCc1nc2c(N)nc3ccccc3c2n1CCOCCN(C)C(=O)c1ccccc1
167 to 169 °C | CS(=O)(=O)N(c1cccc(CN2CCN(C(c3ccccc3)c3ccccc3)CC2)n1)S(C)(=O)=O
84 to 86 °C | CC(C)(C)OC(=O)N1COC(=O)[C@@H]1Cc1ccccc1
155 to 157 °C | Cc1nc2ccccc2n2c(-c3cc(OCC(F)c4ccccn4)ccc3Cl)nnc12 (stereo not given)
110 to 112 °C | CNS(=O)(=O)Cc1ccc(NN=CCSc2ccccc2)cc1
148 to 149 °C | CC(=O)NCc1ccc(CN2CCN(c3ccccc3)CC2)cc1N
106 to 113 °C | CCOC(Cc1ccc(OCCN2c3ccccc3Sc3ccccc32)cc1)C(=O)O (stereo not given)
148 to 150 °C | O=C(O)CCC(=NO)c1ccc(-c2ccc(Cl)cc2F)cc1
139 to 141 °C | COc1cc(N(C)C)c(Cl)cc1C(=O)NC1CCN(Cc2ccc(F)cc2)C1 (stereo not given)
153 to 155 °C | Cc1ccc(S(=O)(=O)O[C@H](C)C(=O)N2C(=O)N(C)C[C@H]2C(=O)OCc2ccccc2)cc1
229 to 231 °C | COc1cn(-c2ccc(C3=CCOCC3)cc2F)nc(-c2ccnn2-c2ccccc2)c1=O
176 to 177 °C | Cc1noc2cc3c(cc12)C1(CO3)C(=O)N(Cc2cccnc2)c2ccccc21 (stereo not given)
147 to 149 °C | COc1ccc(-c2nc(Sc3cccc(F)c3)[nH]c2-c2ccc(OC)cc2)cc1
166 °C | COc1ccc2c(c1)CCn1ncnc1C2=C1CCN(C)CC1
99 to 103 °C | CC(C)(C)OC(=O)Nc1cc(N2CCC(OC3CCCCO3)C2)c(-c2ccc(F)cc2)cc1NC(=O)CC(=O)c1cccc(-n2ccnc2)c1 (stereo not given)
154 to 156 °C | CCOC(=NC(=O)Nc1ccc(Cl)cc1)N1Cc2ccccc2-c2ccccc2C1
158 °C | Cc1cc(C)c2cccc(OCc3c(Cl)ccc(S(=O)(=O)N4CCC[C@H]4C(=O)NCCCN(C)C(=O)c4ccc(C=NN)cc4)c3Cl)c2n1
174 to 179 °C | COc1ccccc1C=C1NC(=O)NC1=O

melting point | Compound
158 to 160 °C | CNc1cc(Oc2cccc(C(F)(F)F)c2)nc(C(=O)Nc2ccccc2)c1
229 to 230 °C | COc1ccc2c(c1)NC(=O)N(c1ccc(Cl)cc1)S2(=O)=O
95 to 96 °C | CCOC(=O)Cc1cccc(-c2nc(COc3ccc(CCl)cc3OC)c(C)o2)c1
207 °C | O=C(Nc1cccc(S(=O)(=O)C(F)(F)F)c1)c1cnn2c(C(F)F)cc(-c3ccc(C(F)(F)F)cc3)nc12
182 to 183 °C | Cc1ccc(-n2ccc(=O)c(-c3ccnn3-c3ccccc3)n2)cc1
167 to 170 °C | OCc1c(F)cccc1NC1CCN(Cc2ccccc2)CC1
170 °C | N#Cc1c(SSc2ccc([N+](=O)[O-])cc2C(Cl)(Cl)Cl)ccc2ccccc12
136 to 137 °C | O=C(O)CCc1oc(Oc2ccccc2)nc1-c1ccc(Cl)cc1
150 to 152 °C | CCCNC(=O)C(C)=Cc1ccc2ccn(Cc3ccc(C(=O)O)cc3OC)c2c1
152 to 154 °C | CC(=O)c1ccc2c(c1)oc(=O)n2CCCN1CCC(c2noc3cc(F)ccc23)CC1
125 to 126 °C | Cc1ccc(NC(=O)C(=O)N2CCC(Cc3ccc(F)cc3)CC2)cc1
112 °C | CCOc1ccc(-c2nc(-c3cccc(C(O)CO)n3)cs2)cc1OCC (stereo not given)
172 to 173 °C | O=C(Nc1cccnc1)N1CCN(c2nc(-c3cccc(F)c3F)cs2)CC1
252 to 254 °C | O=C1CCn2c(-c3cccs3)nc3c(Cl)ccc1c32
122 °C | CC(CCN1c2cccc3cccc(c23)S1(=O)=O)N1CCN(c2ccc(F)cc2)CC1 (stereo not given)
369 to 371 °C | Cc1cc(-n2cnnc2)cc2ccc(=O)[nH]c12
110 to 112 °C | CN1CC(CN2CCN(c3ccccc3)CC2)OC1=O (stereo not given)
113 to 116 °C | O=C(NN1CCCCC1)C1CN(c2ccc(Cl)cc2)C(c2ccc(Cl)cc2Cl)=N1 (stereo not given)
